# Data taken from US11014888B2, “Crystalline form of alkynyl pyridine prolyl hydroxylase inhibitor and method for preparing same” (JIANGSU HENGRUI MEDICINE CO., LTD., priority 2017, dated 2021).
# Legend:
# prolyl hydroxylase = conditions: as disclosed in WO2017059623; cited from earlier work
# [1] = XRPD comparison of crystal forms before and after DSC heating; assay type: physicochemical
# Procedure: XRPD test was carried out on the samples of crystal forms A, B and I after the DSC test.
# [2] = XRPD after standing at 0% humidity for 10 days; assay type: physicochemical
# Excerpt: The samples of crystal forms A and B were left to stand under the condition of 0% humidity for 10 days, and subjected to XRPD to investigate the stability of the crystal form under the low humidity condition.
# [3] = Physical stability test (XRPD) of crystal forms under different placement conditions; assay type: physicochemical; conditions: for Physical stability, conclusion from Table 7: C, D, H changed after one week, A, B, I did not change after one month; for Physical stability (XRPD): 1 week
# Procedure: Physical stability test was carried out on the samples of crystal forms A, B, C, D, H and I under different placement conditions. The placement conditions were:
# 1. 40° C., humidity 75%, open/sealed;
# 2. 25° C., humidity 60%, open; and […]
# [4] = XRPD comparison of crystal forms before and after the DVS test; assay type: physicochemical; conditions: for Crystal form change before and after the DVS test (XRPD): 25° C., water, 50%-95%-0%-95%-50% RH; for Stability / sensitivity to humidity: conclusion from XRPD before and after DVS test
# Procedure: XRPD test was carried out on the samples of crystal forms A, B and I after the DVS test, and the XRPD results of each crystal form before and after the DVS test were compared.
# DVS instrument parameters:
# Maximum step size: 360 minutes
# [5] = Chemical stability under different humidity conditions, impurity content by HPLC; assay type: physicochemical; conditions: for Total impurity content (%): HPLC; for Impurity content level / Change of impurity content under various conditions: conclusion from Table 8; for Change of impurity content under various conditions: humidity 0%, 75%, 92.5% (25° C.), up to 30 days
# Procedure: The samples of crystal forms A, B and I were left to stand under different humidity conditions to test their chemical stability. The impurity content was determined by HPLC (HPLC detection conditions: ZORBAX SB-C18 4.6*150 mm 3.5 μm, mobile phase: TFA/methanol/water, detection wavelength: 223 nm).
# [6] = Chemical stability under different placement conditions; assay type: physicochemical; conditions: 40° C., humidity 75%, open/sealed, 25° C., humidity 60%, or 2-6° C.
# [7] = Humidity 92.5% (25° C.), 5 days
# [8] = Humidity 92.5% (25° C.), 10 days
# [9] = Humidity 92.5% (25° C.), 30 days
"Physical stability, conclusion from Table 7 [3]",Crystal form change before and after the DVS test (XRPD) [4],Total impurity content (%) ([5]; Day 0),"Total impurity content (%) ([5]; Humidity 0% (25° C.), 5 days)","Total impurity content (%) ([5]; Humidity 0% (25° C.), 10 days)","Total impurity content (%) ([5]; Humidity 0% (25° C.), 30 days)","Total impurity content (%) ([5]; Humidity 75% (25° C.), 5 days)","Total impurity content (%) ([5]; Humidity 75% (25° C.), 10 days)","Total impurity content (%) ([5]; Humidity 75% (25° C.), 30 days)","Total impurity content (%) [5, 7] [%]","Total impurity content (%) [5, 8] [%]","Total impurity content (%) [5, 9] [%]",Impurity content level [5],Change of impurity content under various conditions [5],SMILES,Physical stability (XRPD) ([3]; 40° C. open (humidity 75%)),also measured
poor physical stability,–,–,–,–,–,–,–,–,–,–,–,–,–,"O=C(O)CNC(=O)c1ncc(C#CCOc2ccc(Cl)cc2)cc1O [crystal form C, 2-(3-hydroxy-5-(3-p-chlorophenoxypropyn-1-yl))picolinamido acetic acid]",x (x means that the crystal form changed),Physical stability (XRPD) ([3]; 4° C. sealed): x (x means that the crystal form changed); Physical stability (XRPD) ([3]; 25° C. open (humidity 60%)): x (x means that the crystal form changed); Physical stability (XRPD) ([3]; 40° C. sealed (humidity 75%)): x (x means that the crystal form changed)
poor physical stability,–,–,–,–,–,–,–,–,–,–,–,–,–,"O=C(O)CNC(=O)c1ncc(C#CCOc2ccc(Cl)cc2)cc1O [crystal form D, 2-(3-hydroxy-5-(3-p-chlorophenoxypropyn-1-yl))picolinamido acetic acid]",x (x means that the crystal form changed),Physical stability (XRPD) ([3]; 4° C. sealed): x (x means that the crystal form changed); Physical stability (XRPD) ([3]; 25° C. open (humidity 60%)): x (x means that the crystal form changed); Physical stability (XRPD) ([3]; 40° C. sealed (humidity 75%)): x (x means that the crystal form changed)
good physical stability,changed,1.56,1.57,1.58,2.06,1.72,1.78,1.88,1.90,2.24,2.22,relatively high impurity content,changed significantly,"O=C(O)CNC(=O)c1ncc(C#CCOc2ccc(Cl)cc2)cc1O [crystal form I, 2-(3-hydroxy-5-(3-p-chlorophenoxypropyn-1-yl))picolinamido acetic acid]",–,Crystal form change after DSC heating (XRPD) ([1]; after heating to 105° C.): changed; Stability / sensitivity to humidity [4]: most sensitive to humidity

# Second part, the compound before the results:
SMILES,"Physical stability, conclusion from Table 7 [3]",Crystal form change before and after the DVS test (XRPD) [4],Total impurity content (%) ([5]; Day 0),"Total impurity content (%) ([5]; Humidity 0% (25° C.), 5 days)","Total impurity content (%) ([5]; Humidity 0% (25° C.), 10 days)","Total impurity content (%) ([5]; Humidity 0% (25° C.), 30 days)","Total impurity content (%) ([5]; Humidity 75% (25° C.), 5 days)","Total impurity content (%) ([5]; Humidity 75% (25° C.), 10 days)","Total impurity content (%) ([5]; Humidity 75% (25° C.), 30 days)","Total impurity content (%) [5, 7] [%]","Total impurity content (%) [5, 8] [%]","Total impurity content (%) [5, 9] [%]",Impurity content level [5],Change of impurity content under various conditions [5],Physical stability (XRPD) ([3]; 40° C. open (humidity 75%)),also measured
"O=C(O)CNC(=O)c1ncc(C#CCOc2ccc(Cl)cc2)cc1O [compound of formula (I), 2-(3-hydroxy-5-(3-p-chlorophenoxypropyn-1-yl))picolinamido acetic acid]",–,–,–,–,–,–,–,–,–,–,–,–,–,–,–,Inhibition effect on prolyl hydroxylase (prolyl hydroxylase): excellent inhibition effect
"O=C(O)CNC(=O)c1ncc(C#CCOc2ccc(Cl)cc2)cc1O [crystal form A, 2-(3-hydroxy-5-(3-p-chlorophenoxypropyn-1-yl))picolinamido acetic acid]",good physical stability,"did not change, but the crystallinity thereof decreased",1.88,1.89,2.00,2.14,1.92,1.97,2.17,1.96,1.99,2.05,relatively high impurity content,changed significantly,–,Crystal form change after DSC heating (XRPD) ([1]; after heating to 105° C.): changed; Crystal form change under low humidity (XRPD) [2]: changed
"O=C(O)CNC(=O)c1ncc(C#CCOc2ccc(Cl)cc2)cc1O [crystal form B, 2-(3-hydroxy-5-(3-p-chlorophenoxypropyn-1-yl))picolinamido acetic acid]",good physical stability,did not change,0.95,0.97,1.03,1.09,0.94,0.98,1.06,0.98,0.98,1.02,low impurity content,substantially did not increase,–,Crystal form change after DSC heating (XRPD) ([1]; after heating to 135° C.): did not change; Crystal form change under low humidity (XRPD) [2]: did not change; Stability / sensitivity to humidity [4]: most stable to humidity; Chemical stability under different placement conditions [6]: excellent chemical stability
"O=C(O)CNC(=O)c1ncc(C#CCOc2ccc(Cl)cc2)cc1O [crystal form H, 2-(3-hydroxy-5-(3-p-chlorophenoxypropyn-1-yl))picolinamido acetic acid]",poor physical stability,–,–,–,–,–,–,–,–,–,–,–,–,–,x (x means that the crystal form changed),–
